According to paper PMC10033812, “Imaging the TGFβ type I receptor in pulmonary arterial hypertension” (EJNMMI Research, 2023):

How the values were obtained:
[1] = Ex vivo metabolite analysis in rat blood plasma (SPE/HPLC); details: for Intact tracer: rat blood plasma, ± SEM, n = 4; for In vivo metabolic stability in rats: in words
Protocol: (§1) A biodistribution study and metabolite analysis was carried out in healthy male Wistar rats (214 ± 15 g, Charles River, Germany). Rats were injected with 21 ± 15 MBq of [^11C]LR111 in the tail vein under isoflurane anaesthesia (2% in O2 at 1 L min^−1). Rats were sacrificed under similar isoflurane anaesthesia by exsanguination and dissected at 5, 15, 30 and 60 min post injection (p.i.) (n = 4 per time point). Rats were injected with 14 ± 5 MBq [^18F]EW-7197 in the tail vein under isoflurane anaesthesia (2% in O2 at 1 L min^−1). Rats were sacrificed under similar isoflurane anaesthesia by exsanguination and dissected at 5, 15, 30 and 45 min post injection (p.i.) (n = 4 per time point). Blood, heart, lungs, liver, kidneys, urine, bone and brain were collected, weighed and counted for radioactivity (Wallac 1210 Compugamma, PerkinElmer, Waltham, MA, USA). Biodistribution data were expressed as percentage injected dose per gram tissue (%ID·g^−1) ± standard error of the mean (SEM). Blood at 15 min and 60 min p.i. ([^11C]LR111) and blood at 15 min and 45 min p.i. ([^18F]EW-7197), withdrawn from the abdominal aorta, (~ 7 mL) was collected in a heparin coated tube and centrifuged at 5000 rpm to separate plasma from blood cells (Hettich universal 32, Andreas Hettich GmbH & Co. KG, Tuttlingen, Germany). Solid phase extraction (SPE) cartridges (tC2, Waters, Ettenleur, The Netherlands) were preconditioned by washing with 6 mL MeOH and 2 × 6 mL H2O. Plasma (1 mL) was mixed with 6.0 M HCl (50 µL) and loaded on the SPE cartridge (> 99% recovery). The polar metabolite fraction was obtained by eluting the SPE cartridge with H2O (3 mL), the non-polar fraction by subsequent elution with MeOH (2 mL) and H2O (1 mL). Fractions were counted for radioactivity (Wallac 1210 Compugamma, PerkinElmer, Waltham, MA, USA). The percentage of intact tracer in the non-polar fraction was determined by online HPLC analysis on a Dionex (Sunnyvale, CA, USA) UltiMate 3000 HPLC equipment with Chromeleon software (version 6.8) equipped with a Gemini C18 column (5 μm, 10 × 250 mm, Phenomenex, Torrance, CA, USA) with a mixture of MeCN (A) and 0.1% TFA in water (B) as eluent according to the following scheme 0 min: 90% B; 12 min 15% B; 8 min 90% B at 3.5 mL.min^−1 [^11C]LR111 Rt = 10.7 min and [^18F]EW-7197 Rt = 9.2 min. Results were expressed as percentage of intact tracer, polar metabolites and non-polar metabolites ± SEM (n = 4 for each time point).

ALK5 [2] = target: T1, ALK5 (Rattus norvegicus, UniProt P80204); experiment: Dynamic PET imaging of lung uptake in control, MCT- and SuHx-exposed rats; type: in vivo; details: for Difference in lung uptake between control group and diseased animals after 15 min: after 15 min p.i.
T1 sequence (P80204 30-501): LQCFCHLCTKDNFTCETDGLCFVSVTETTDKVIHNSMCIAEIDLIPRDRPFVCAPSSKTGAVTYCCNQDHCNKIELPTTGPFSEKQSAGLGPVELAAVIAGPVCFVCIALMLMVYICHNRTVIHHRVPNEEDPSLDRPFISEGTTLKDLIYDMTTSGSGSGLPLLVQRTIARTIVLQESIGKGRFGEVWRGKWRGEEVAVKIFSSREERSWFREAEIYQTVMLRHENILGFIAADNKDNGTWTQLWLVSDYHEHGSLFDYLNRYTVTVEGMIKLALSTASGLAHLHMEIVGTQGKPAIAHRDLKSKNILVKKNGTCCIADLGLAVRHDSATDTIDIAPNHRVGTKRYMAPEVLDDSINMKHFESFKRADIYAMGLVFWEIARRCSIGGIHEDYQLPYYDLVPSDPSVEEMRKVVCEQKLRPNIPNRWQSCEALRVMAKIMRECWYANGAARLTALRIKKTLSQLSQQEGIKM
Protocol: Dynamic PET imaging was performed with NanoPET/CT and nanoPET/MR 1 T scanners (Mediso Ltd., Hungary, Budapest) with identical PET components. All injections were performed via a tail vein catheter. […] Rats were positioned on the scanner bed and the respiratory rate was monitored for the duration of the experiment, adjusting anaesthesia when required. Animals first underwent a computed tomography (CT) or magnetic resonance imaging (MRI) scan to keep the isoflurane exposure as low as possible (see Fig. 2 for the set-up of the experiment). […] Dynamic PET scans, starting at the time of tracer administration, were acquired for 60 min. […] At day 2, all animals received SB431542 30 min prior the injection of [^11C]LR111. In addition, the control group received a cyclosporine A (Sigma-Aldrich, Zwijndrecht, The Netherlands) injection at day 3, 30 min prior to the injection of [^11C]LR111. Finally, at day 4, SB431542 and cyclosporine A injections were administered 30 min prior to the injection of [^11C]LR111. After these scanning experiments, the animals were sacrificed by cervical dislocation. Lung tissues were removed from MCT (n = 3), SuHx (n = 3) and healthy rats (n = 3). They were filled with 50% Tissue-Tek (VWR, Amsterdam, The Netherlands) and 50% physiological salt and snap frozen in liquid nitrogen. Positron emission scans were acquired in list mode and rebinned into the following frame sequence: 4 × 5, 4 × 10, 2 × 30, 3 × 60, 2 × 300, 1 × 600, 1 × 900 and 1 × 1200 s. The scans were reconstructed with a spatial resolution of 0.4 mm and were corrected for attenuation and scatter. The scans of the first 30 s were combined to correct for injection speed differences. Images were analysed using the freely available software AMIDE, version 1.0.4 (http://amide.sourceforge.net/). […] Uptake was expressed as standard uptake values (SUV), which was calculated according to the following equation: SUV=%uptake of the total tracer dose/volume of the region of interest/bodyweight Error bars indicate standard deviation. Statistical analysis was performed using Graphpad PRISM (v 5.02, Graphpad Software Inc). Lung uptake in the control group was compared with uptake in the diseased animals with a one-tailed unpaired t-test. Differences were considered significant if p < 0.05. The representative PET images were generated using VivoQuant2020.

[3] = Ex vivo biodistribution study in healthy male Wistar rats; set-up: species or system rat; details: i.v., ± SEM; for Retention in healthy lung tissue: 15 min p.i., n = 4
Protocol: as §1, with “Solid phase extraction (SPE) cartridges (tC2, Waters, Ettenleur, The Netherlands) were preconditioned by washing with 6 mL MeOH and 2 × 6 mL H2O. Plasma (1 mL) was mixed with 6.0 M HCl (50 µL) and loaded on the SPE cartridge (> 99% recovery). The polar metabolite fraction was obtained by eluting the SPE cartridge with H2O (3 mL), the non-polar fraction by subsequent elution with MeOH (2 mL) and H2O (1 mL).” left out

ALK5 [4] = target: T1, ALK5; experiment: Autoradiography on control, MCT- and SuHx-exposed rat lung sections; type: binding; details: for Binding to MCT-exposed lungs compared with control lungs: MCT-exposed lungs (Wistar) vs healthy lungs normalized to 100%; for Binding to MCT-exposed lungs compared with control lungs / Binding to SuHx-exposed lungs compared with control lungs: n = 3; for Binding to SuHx-exposed lungs compared with control lungs: SuHx-exposed lungs (S.D.) vs healthy lungs normalized to 100%
Protocol: Sections of 10 μm thickness were cut using a Cryostat ([…]) and thaw mounted on Thermo Scientific Superfrost plus adhesion slides. The sections were stored at- 20 °C until further handling. Tissue sections were defrosted, washed three times for 5 min with 5 mM Tris HCl buffer, pH 7.4 and dried in a cold stream of air. […] Sigma-Aldrich, Zwijndrecht, The Netherlands). The sections were washed in cold 5 mM Tris HCl buffer, pH 7.4, (three times 1 min) followed by a dip in ice cold water. […] Screens were developed on a Typhoon FLA 7000 phosphor imager (GE Healthcare lifescience, Buckinghamshire, UK) and analysed using Image Quant TL v8.1.0.0 (GE Healthcare lifescience, Buckinghamshire, UK). […] Statistical analysis was performed using Graphpad PRISM (v 5.02, Graphpad Software Inc). Tracer uptake in the tissue was compared with tracer uptake co-administered with SB431542 by using a one-tailed unpaired t-test. Differences were considered significant if p < 0.05. Adjacent tissue sections were used for autoradiography experiments.

P-gp = experiment: PET imaging after cyclosporine A (efflux pump inhibitor) in healthy rats; type: in vivo, rat; details: increased lung uptake in healthy rats after cyclosporine A
Protocol: Dynamic PET imaging was performed with NanoPET/CT and nanoPET/MR 1 T scanners (Mediso Ltd., Hungary, Budapest) with identical PET components. All injections were performed via a tail vein catheter. […] Rats were positioned on the scanner bed and the respiratory rate was monitored for the duration of the experiment, adjusting anaesthesia when required. Animals first underwent a computed tomography (CT) or magnetic resonance imaging (MRI) scan to keep the isoflurane exposure as low as possible (see Fig. 2 for the set-up of the experiment). All tracer injections were performed via a tail vein catheter using 4 and 2% isoflurane in 1 L min^−1 oxygen for induction and maintenance, respectively (see Table 1 for animal weights and injected doses). Dynamic PET scans, starting at the time of tracer administration, were acquired for 60 min. Immediately after the [^11C]LR111 scan, a bolus injection of [^18F]EW-7197 was administered, in order to minimize the time that rats were exposed to isoflurane, and another dynamic PET scan was acquired. […] Images were analysed using the freely available software AMIDE, version 1.0.4 (http://amide.sourceforge.net/). […] Uptake was expressed as standard uptake values (SUV), which was calculated according to the following equation: SUV=%uptake of the total tracer dose/volume of the region of interest/bodyweight

[5] = PET, 15 min p.i., MCT rats, baseline scan
[6] = PET, 15 min p.i., SuHx rats, baseline scan
[7] = PET, 15 min p.i., healthy Wistar rats, SB431542 20 mg kg^−1 30 min prior
[8] = PET, 15 min p.i., healthy Wistar rats, baseline
[9] = PET, 15 min p.i., healthy Wistar rats, cyclosporine A 50 mg kg^−1 30 min prior
[10] = PET, 15 min p.i., healthy Wistar rats, cyclosporine A + SB431542
[11] = PET, 15 min p.i., healthy Wistar rats

SMILES | Intact tracer ([1]; 15 min p.i.) [%] | In vivo metabolic stability in rats [1] | Lung uptake in MCT-exposed rats compared with control group (ALK5 [2]; PET, 15 min p.i.) [fold] | Lung uptake in SuHx rats compared with control group (ALK5 [2]; PET, 15 min p.i.) | Uptake in the lungs (ALK5 [2]; [5]) [SUV] | Uptake in the lungs (ALK5 [2]; [6]) [SUV] | Uptake in the lungs (ALK5 [2]; [7]) [SUV] | Uptake in the lungs (ALK5 [2]; [8]) [SUV] | Uptake in the lungs (ALK5 [2]; [9]) [SUV] | Uptake in the lungs (ALK5 [2]; [10]) [SUV] | Difference in lung uptake between control group and diseased animals after 15 min (ALK5 [2]; PET) | Retention in healthy lung tissue [3] [% ID·g^−1] | Binding to MCT-exposed lungs compared with control lungs (ALK5 [4]) [times] | Binding to SuHx-exposed lungs compared with control lungs (ALK5 [4]) [times] | further results
Cc1csc(-c2nc(CN[11C](=O)OCC(C)C)[nH]c2-c2ccc3ncsc3c2)n1 [[^11C]LR111] | 74 ± 5 | moderately stable | 1.1 | similar | 1.10 ± 0.25 | 1.04 ± 0.13 | 0.85 ± 0.12 | 1.03 ± 0.07 | 0.85 ± 0.19 | 1.00 ± 0.32 | no difference | 0.45 ± 0.03 | 1.5 | 3.2 | Intact tracer ([1]; 60 min p.i.): 46 ± 2%; Tracer binding when SB431542 was added (ALK5 [4]; SB431542 94 µM): could be blocked
Cc1cccc(-c2[nH]c(CNc3ccccc3[18F])nc2-c2ccc3ncnn3c2)n1 [[^18F]EW-7197, N-((4-(1,2,4 triazolo 1,5-apyridin-6-yl)-5-(6-methylpyridin-2-yl)-1H-imidazol-2-yl)methyl)-2-fluoroaniline] | 55 ± 16 | moderately stable | 1.4 | 2.5 fold | 0.81 ± 0.15 | 1.47 ± 0.47 | 0.44 ± 0.12 | 0.59 ± 0.10 | 0.90 ± 0.18 | 0.72 ± 0.21 | no difference | 0.56 ± 0.07 | 1.2 | 1.2 | Intact tracer ([1]; 45 min p.i.): 23 ± 5%; Blocking of lung uptake with SB431542 in PET scans (ALK5 [2]; PET images, SB431542 20 mg kg^−1): could be blocked; Lung accumulation with cyclosporine A and SB431542 relative to baseline (ALK5 [2]; [11]): 1.2 fold; Lung accumulation with cyclosporine A relative to baseline (ALK5 [2]; [11]): 1.5 fold; Retention in bone [3]: 0.21 ± 0.02 % ID·g^−1; Substrate for P-gp (P-gp): substrate for P-gp
